Measured values as given in ChEMBL document CHEMBL1201862, “PubChem BioAssay data set” (2004).
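Briefly, cells in 96-well plates were exposed to five compound concentrations for 48 h, and endpoints were estimated by linear interpolation. GI50 = concentration required for 50% inhibition of growth.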 Calls of active or inactive are those of the source. Cut-off read from the data, not from the text of the source: active = GI50 up to about 1.1 µM and inactive = higher.

Key:
Assay in all cases: NCI-60 cell line screen, 48 h
OVCAR-3 = system: OVCAR-3
HCT-116 = system: HCT-116
HT-29 = system: HT-29
NCI-H460 = system: NCI-H460
K562 = system: K562
HOP-92 = system: HOP-92
RXF 393 = system: RXF 393
NCI-H522 = system: NCI-H522
RXF 631 = system: RXF 631
ACHN = system: ACHN
Malme-3M = system: Malme-3M
SF-268 = system: SF-268
M14 = system: M14
DLD-1 = system: DLD-1
SK-OV-3 = system: SK-OV-3
UACC-257 = system: UACC-257
DMS-114 = system: DMS-114
CCRF-CEM = system: CCRF-CEM
SF-539 = system: SF-539
SW-620 = system: SW-620
CAKI-1 = system: CAKI-1
A498 = system: A498
IGROV-1 = system: IGROV-1
786-0 = system: 786-0
SNB-75 = system: SNB-75
SN12C = system: SN12C
EKVX = system: EKVX
SNB-78 = system: SNB-78
XF498 = system: XF498
SK-MEL-28 = system: SK-MEL-28
OVCAR-4 = system: OVCAR-4
A549 = system: A549
LXFL 529 = system: LXFL 529
MOLT-4 = system: MOLT-4
OVCAR-8 = system: OVCAR-8
UO-31 = system: UO-31
NCI-H226 = system: NCI-H226
U-251 = system: U-251
COLO 205 = system: COLO 205
HL-60 = system: HL-60
SNB-19 = system: SNB-19
UACC-62 = system: UACC-62
SR = system: SR
SK-MEL-5 = system: SK-MEL-5
KM12 = system: KM12
LOX IMVI = system: LOX IMVI
TK-10 = system: TK-10
NCI-H23 = system: NCI-H23
SF-295 = system: SF-295
KM-20L2 = system: KM-20L2
M19-MEL = system: M19-MEL
HOP-62 = system: HOP-62
SK-MEL-2 = system: SK-MEL-2
OVCAR-5 = system: OVCAR-5
RPMI-8226 = system: RPMI-8226
DMS-273 = system: DMS-273
HCT-15 = system: HCT-15
HCC 2998 = system: HCC 2998
HOP-18 = system: HOP-18

Compound: CC1CC[C@@]23CCC4(C)[C@@](C=CC5[C@@]6(C)CCC(=O)C(C)(C)C6CC[C@]54C)(OC2=O)[C@@H]3[C@H]1C (some centres not stated)
- GI50 (OVCAR-3): 11.9 µM (inactive)
- GI50 (HCT-116): 6.68 µM (inactive)
- GI50 (HT-29): 16.4 µM (inactive)
- GI50 (NCI-H460): 13.2 µM (inactive)
- GI50 (K562): 6.3 µM (inactive)
- GI50 (HOP-92): 15.9 µM (inactive)
- GI50 (RXF 393): 14.1 µM (inactive)
- GI50 (NCI-H522): 11 µM (inactive)
- GI50 (RXF 631): 21.1 µM (inactive)
- GI50 (ACHN): 12 µM (inactive)
- GI50 (Malme-3M): 20.9 µM (inactive)
- GI50 (SF-268): 50.4 µM (inactive)
- GI50 (M14): 21.7 µM (inactive)
- GI50 (DLD-1): 19.3 µM (inactive)
- GI50 (SK-OV-3): 27.9 µM (inactive)
- GI50 (UACC-257): 6.59 µM (inactive)
- GI50 (DMS-114): 6.46 µM (inactive)
- GI50 (CCRF-CEM): 5.35 µM (inactive)
- GI50 (SF-539): 24.5 µM (inactive)
- GI50 (SW-620): 30.8 µM (inactive)
- GI50 (CAKI-1): 21.5 µM (inactive)
- GI50 (A498): 20.6 µM (inactive)
- GI50 (IGROV-1): 21.1 µM (inactive)
- GI50 (786-0): 24.3 µM (inactive)
- GI50 (SNB-75): 23.6 µM (inactive)
- GI50 (SN12C): 20.2 µM (inactive)
- GI50 (EKVX): 32.1 µM (inactive)
- GI50 (SNB-78): 20 µM (inactive)
- GI50 (XF498): 15.3 µM (inactive)
- GI50 (SK-MEL-28): 20.4 µM (inactive)
- GI50 (OVCAR-4): 29.4 µM (inactive)
- GI50 (A549): 6.93 µM (inactive)
- GI50 (LXFL 529): 9.89 µM (inactive)
- GI50 (MOLT-4): 7.29 µM (inactive)
- GI50 (OVCAR-8): 18.6 µM (inactive)
- GI50 (UO-31): 8.02 µM (inactive)
- GI50 (NCI-H226): 19.8 µM (inactive)
- GI50 (U-251): 17.3 µM (inactive)
- GI50 (COLO 205): 13.7 µM (inactive)
- GI50 (HL-60): 1.6 µM (inactive)
- GI50 (SNB-19): 29.8 µM (inactive)
- GI50 (UACC-62): 12.2 µM (inactive)
- GI50 (SR): 6.08 µM (inactive)
- GI50 (SK-MEL-5): 4.84 µM (inactive)
- GI50 (KM12): 12 µM (inactive)
- GI50 (LOX IMVI): 13.8 µM (inactive)
- GI50 (TK-10): 22.4 µM (inactive)
- GI50 (NCI-H23): 11.9 µM (inactive)
- GI50 (SF-295): 18.8 µM (inactive)
- GI50 (KM-20L2): 15.4 µM (inactive)
- GI50 (M19-MEL): 17.9 µM (inactive)
- GI50 (HOP-62): 16.9 µM (inactive)

Compound: CCCCCCCCC/C=C1\CCC(CN(C)C)C1=O (configuration not stated)
- GI50 (HCT-116): 1.8 µM (inactive)
- GI50 (HT-29): 1.7 µM (inactive)
- GI50 (SK-MEL-2): 2.72 µM (inactive)
- GI50 (NCI-H460): 3.43 µM (inactive)
- GI50 (K562): 1.86 µM (inactive)
- GI50 (HOP-92): 2.13 µM (inactive)
- GI50 (NCI-H522): 1.95 µM (inactive)
- GI50 (RXF 631): 2.07 µM (inactive)
- GI50 (ACHN): 2.2 µM (inactive)
- GI50 (Malme-3M): 3.03 µM (inactive)
- GI50 (SF-268): 1.97 µM (inactive)
- GI50 (M14): 1.84 µM (inactive)
- GI50 (DLD-1): 2.06 µM (inactive)
- GI50 (SK-OV-3): 17.2 µM (inactive)
- GI50 (UACC-257): 1.69 µM (inactive)
- GI50 (DMS-114): 2.26 µM (inactive)
- GI50 (CCRF-CEM): 0.721 µM (active)
- GI50 (SF-539): 1.79 µM (inactive)
- GI50 (SW-620): 1.58 µM (inactive)
- GI50 (CAKI-1): 2.25 µM (inactive)
- GI50 (A498): 2.48 µM (inactive)
- GI50 (IGROV-1): 2.63 µM (inactive)
- GI50 (786-0): 0.281 µM (active)
- GI50 (SNB-75): 2.37 µM (inactive)
- GI50 (SN12C): 2.08 µM (inactive)
- GI50 (EKVX): 2.47 µM (inactive)
- GI50 (SNB-78): 2.37 µM (inactive)
- GI50 (SK-MEL-28): 2.03 µM (inactive)
- GI50 (A549): 4.39 µM (inactive)
- GI50 (OVCAR-5): 14.8 µM (inactive)
- GI50 (LXFL 529): 1.34 µM (inactive)
- GI50 (RPMI-8226): 0.0619 µM (active)
- GI50 (MOLT-4): 2.62 µM (inactive)
- GI50 (OVCAR-8): 1.69 µM (inactive)
- GI50 (DMS-273): 1.69 µM (inactive)
- GI50 (UO-31): 2.02 µM (inactive)
- GI50 (NCI-H226): 9.51 µM (inactive)
- GI50 (U-251): 1.66 µM (inactive)
- GI50 (COLO 205): 2.29 µM (inactive)
- GI50 (HL-60): 1.94 µM (inactive)
- GI50 (SNB-19): 5.87 µM (inactive)
- GI50 (UACC-62): 2.48 µM (inactive)
- GI50 (SR): 2.43 µM (inactive)
- GI50 (SK-MEL-5): 2.05 µM (inactive)
- GI50 (KM12): 1.64 µM (inactive)
- GI50 (LOX IMVI): 1.22 µM (inactive)
- GI50 (TK-10): 2.18 µM (inactive)
- GI50 (NCI-H23): 2.44 µM (inactive)
- GI50 (SF-295): 3.22 µM (inactive)
- GI50 (KM-20L2): 2.18 µM (inactive)
- GI50 (M19-MEL): 1.86 µM (inactive)
- GI50 (HCT-15): 2.22 µM
- GI50 (HCC 2998): 3.5 µM (inactive)
- GI50 (HOP-62): 2.08 µM (inactive)

Compound: COC(CN1C(=O)c2cccc3cccc(c23)C1=O)OC
- GI50 (OVCAR-3): > 100 µM (inactive)
- GI50 (HCT-116): 46.2 µM (inactive)
- GI50 (HT-29): > 100 µM (inactive)
- GI50 (SK-MEL-2): 1.61 µM (inactive)
- GI50 (NCI-H460): 41.3 µM (inactive)
- GI50 (K562): 68.5 µM (inactive)
- GI50 (HOP-92): 73.5 µM (inactive)
- GI50 (RXF 393): > 100 µM (inactive)
- GI50 (ACHN): 41.5 µM (inactive)
- GI50 (Malme-3M): > 100 µM (inactive)
- GI50 (SF-268): > 100 µM (inactive)
- GI50 (M14): > 100 µM (inactive)
- GI50 (DLD-1): > 100 µM (inactive)
- GI50 (SK-OV-3): > 100 µM (inactive)
- GI50 (UACC-257): 78.2 µM (inactive)
- GI50 (DMS-114): 78 µM (inactive)
- GI50 (CCRF-CEM): 73.3 µM (inactive)
- GI50 (SF-539): 57.7 µM (inactive)
- GI50 (SW-620): 91.8 µM (inactive)
- GI50 (A498): 82.8 µM (inactive)
- GI50 (IGROV-1): > 100 µM (inactive)
- GI50 (786-0): > 100 µM (inactive)
- GI50 (SNB-75): 43.4 µM (inactive)
- GI50 (SN12C): 41.1 µM (inactive)
- GI50 (EKVX): 49 µM (inactive)
- GI50 (SNB-78): > 100 µM (inactive)
- GI50 (HOP-18): > 100 µM (inactive)
- GI50 (XF498): 23.1 µM (inactive)
- GI50 (SK-MEL-28): > 100 µM (inactive)
- GI50 (OVCAR-4): > 100 µM (inactive)
- GI50 (A549): 56.9 µM (inactive)
- GI50 (OVCAR-5): > 100 µM (inactive)
- GI50 (LXFL 529): 62.7 µM (inactive)
- GI50 (RPMI-8226): 52.6 µM (inactive)
- GI50 (MOLT-4): 32.3 µM (inactive)
- GI50 (OVCAR-8): 71 µM (inactive)
- GI50 (DMS-273): 48.9 µM (inactive)
- GI50 (UO-31): 37.1 µM (inactive)
- GI50 (NCI-H226): 26.2 µM (inactive)
- GI50 (U-251): 42.4 µM (inactive)
- GI50 (COLO 205): > 100 µM (inactive)
- GI50 (HL-60): 72.9 µM (inactive)
- GI50 (SNB-19): > 100 µM (inactive)
- GI50 (UACC-62): 73.1 µM (inactive)
- GI50 (SR): 40.5 µM (inactive)
- GI50 (SK-MEL-5): 70.1 µM (inactive)
- GI50 (KM12): 80.4 µM (inactive)
- GI50 (LOX IMVI): 53.5 µM (inactive)
- GI50 (TK-10): 74.3 µM (inactive)
- GI50 (NCI-H23): > 100 µM (inactive)
- GI50 (SF-295): > 100 µM (inactive)
- GI50 (KM-20L2): > 100 µM (inactive)
- GI50 (M19-MEL): > 100 µM (inactive)
- GI50 (HCT-15): 53.6 µM
- GI50 (HCC 2998): > 100 µM (inactive)
- GI50 (HOP-62): 43.7 µM (inactive)
